Measured values taken from patent US20160136284A1, “GLIOMA TREATMENT” (priority 2012, published 2016).

How the values were obtained:
GBM = conditions: 4 consecutive sets of infusions at 0.03 mg/ml, assuming 50% kill per set
Method: This is a phase I, single centre, dose-escalation study, of carboplatin administered by CED, into the peritumoural region of patients with recurrent or progressive GBM, following tumour resection. The study will incorporate six cohorts, with three patients in each cohort.
Following tumour resection (study day 0), patients undergo a baseline MRI scan (study day 10-21), followed within 24 hours by catheter implantation. For patients with progressive multifocal disease in whom re-resection is not felt to be appropriate, catheters are implanted following a baseline MRI scan. Prior to catheter implantation, patients are loaded with phenytoin (unless allergic) and will be kept on this anticonvulsant during the duration of their infusions. In the event of allergy to phenytoin, patients are administered an alternative anticonvulsant during this time period. […] Catheter tip location is determined at the operating surgeon's discretion, and will be based on diffusion imaging-based fibre-tracking using iPlan Flow (Brainlab, Germany) and experience gained in animal models and previous patients. Up to four catheters are implanted per patient under general anaesthetic and attached to connector tubing, which will be tunnelled to a subcutaneous access device incorporating in-line bacterial filters, implanted in the infraclavicular fossa. […]

[1] = Tissue distribution and half-life of carboplatin after CED into rat brain (LA-ICP-MS); format: in vivo
Method: Male Wistar rats (Charles River, UK) were group-housed and allowed to acclimatise prior to experimental procedures. Rats weighing 225 to 275 g were anaesthetised with an intraperitoneal dose of medetomidine (Dormitor; 0.4 mg/kg; Pfizer Animal Health, Kent, UK) and ketamine (Ketaset; 100 mg/kg; Pfizer, UK) and placed in a stereotactic frame (Stoelting Co, Wood Dale, Ill. USA). A linear incision was made between the glabella and the occiput and the skull exposed. Burr holes with a diameter of approximately 2 mm were drilled 1.0 mm anterior and 2.5 mm lateral to the bregma and cannulae were inserted to a depth of 2.5 mm below the dura. All cannulae were pre-primed with either saline or carboplatin and the desired dose prior to insertion into the brain. Every attempt was made to ensure that no air bubbles were present in the infusion cannula. Infusions of 2.5 μl of carboplatin at specific concentrations (outlined in Table 1) were conducted at a rate of 5 μl/min. Following infusion completion, the cannula was left in-situ for 10 min before being withdrawn at a rate of 1 mm/min. The wound was then closed with 5.0 Vicryl (Ethicon, Gargrave, UK) a dose of intramuscular buprenorphine was administered (Vetergesic; 0.03 mg/kg; Alstoe Animal Health, York, UK) and the anaesthetic was reversed with an intraperitoneal dose of atipamezole hydrochloride (Antisedan; 5 mg/kg; Pfizer, UK). […]
Resultant data (.csv files) was in the form of signal response for each monitored isotope (separate columns) against time; as such, ion-responses could be co-ordinated to form 2D elemental distribution maps, using the Graphis software package (Kylebank Software Ltd, Ayr, UK).
The laser ablation (LA) system was configured to perform multiple, parallel line-rastering of sections. […] Isotopes (^13C, ^57Fe, ^66Zn, ^157Gd and ^195Pt) were monitored in a time-resolved mode and selected on the basis of high-percentage abundance and minimal isobaric and polyatomic interferences. […]

[2] = system: SNB19 and UPAB glioma cells; experiment: MTT cytotoxicity assay in glioma cell lines; format: cell-based
Method: Cell lines were kindly provided by Geoffrey Pilkington from the Institute of Biomedical and Biomolecular Sciences at Portsmouth University, UK. The cell lines used in this study were SNB19 (P20-P45) and UPAB (P20-P45).
Briefly, SNB19 and UPAB glioma cells were plated at 1×10^4/well in a 24-well plate. Cells were treated 72 hours later with Carboplatin at the following concentrations: 0.06 mg, 0.12 mg, 0.18 mg, 0.24 mg, 0.3 mg, 0.36 mg, and 0.6 mg (TEVA, UK) for 24, 48, 72, or 96 hours. Each concentration was repeated 4 times. Carboplatin was diluted in phosphate buffered saline (PBS; Sigma Aldrich, UK) and added to 0.5 mL culture media. PBS was used as a negative control and Puromycin dihydrochloride (10 μg/mL; Sigma Aldrich, UK), which inhibits cell growth by preventing protein synthesis, was used as a positive control. Following the incubation period, culture media was changed. Then 50 μL Methylthiazolyl-tetrazolium bromide solution (MTT; Sigma Aldrich, UK; 5 mg/mL) was added to each well and further incubated for 3 hours at 37° C. in a humidified 5% CO2 atmosphere to allow MTT to form formazan crystals in metabolically active cells. Following this, media was removed, and the formazan crystals in each well were solubilized with 190 μL of isopropanol (Fisher Scientific, Loughborough, UK) acidified with hydrochloric acid (VWR, Leicestershire, UK). The cell lysate was transferred to a 96 well plate and the absorbance of each well was measured at 570 nm using a Multiskan Ascent plate reader (Thermo Electron Corporation, UK). Results are expressed as a percentage (%) of treated versus untreated cells.

[3] = Glioma tissue concentration after high-dose intravenous delivery (Whittle et al.); format: in vivo

N.N.O=C([O-])C1(C(=O)[O-])CCC1.[Pt+2] [carboplatin]
theoretical tumour cell kill (GBM): 94% | distribution in rat brain at 0 hours post-infusion ([1]; 0.03 mg/ml by CED into corpus callosum): widespread distribution | time platinum detectable by LA-ICP-MS ([1]; 0.03 mg/ml by CED into rat corpus callosum): up to 24 hours | time carboplatin remains in the brain ([1]; rat, CED): at least 24 hours | concentration above which increase in cell kill is negligible ([2]; 72 hour exposure): 0.24 mg/mL | concentration above which increase in cell kill is negligible ([2]; 96 hour exposure): 0.18 mg/mL | cell kill ([2]; 96 hour exposure, 0.18 mg/ml): greater than 90% | peak glioma tissue concentration as share of IC50 (meta-analysis of chemosensitivity assays) [3]: 40%
